Laboratory results taken from publication PMC4501872 (The Journal of steroid biochemistry and molecular biology, 2015).
Where two headings read alike, the source gives them in different places.

What was measured:
human SULT2A1 = molecular target: T1, human SULT2A1 (Homo sapiens, UniProt Q06520); assay type: biochemical; details: for rate of 3-sulfate formation in the absence of celecoxib: 2 μM 35S-PAPS for 6D-E2, 20 μM PAPS for the others; for rate of 17-sulfate formation in the absence of celecoxib: 2 μM 35S-PAPS for 6D-E2, 20 μM PAPS for 17β-Eqn; for SULT2A1 enzyme activity toward the substrate: control activity
T1 sequence (Q06520 1-285): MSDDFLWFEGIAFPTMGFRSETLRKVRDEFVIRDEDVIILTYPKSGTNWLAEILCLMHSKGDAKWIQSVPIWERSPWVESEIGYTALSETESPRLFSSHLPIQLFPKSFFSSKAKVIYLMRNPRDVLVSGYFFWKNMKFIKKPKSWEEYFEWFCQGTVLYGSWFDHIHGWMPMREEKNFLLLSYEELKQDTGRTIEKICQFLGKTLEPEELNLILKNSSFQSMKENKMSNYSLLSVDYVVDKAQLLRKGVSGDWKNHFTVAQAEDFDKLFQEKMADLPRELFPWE

[1] = calculated, following a therapeutic dose of 200 mg; cited from earlier work
[2] = No celecoxib, 0.16 μM E2, PAPS 20 μM
[3] = No celecoxib, 0.4 μM E2, PAPS 20 μM
[4] = Celecoxib (50 μM) added after PAPS (20 μM), 0.16 μM E2
[5] = Celecoxib (50 μM) added after PAPS (20 μM), 0.4 μM E2
[6] = Celecoxib (50 μM) added before PAPS (20 μM), 0.16 μM E2
[7] = Celecoxib (50 μM) added before PAPS (20 μM), 0.4 μM E2

SMILES: C[C@]12CC[C@@H]3c4cc(O)c(O)cc4CC[C@H]3[C@@H]1CC[C@@H]2O [2-OH-E2, 2-hydroxyestradiol]
- rate of 3-sulfate formation in the absence of celecoxib (human SULT2A1; 0.4 μM substrate): 2 pmol/min/mg protein

SMILES: C[C@]12CC[C@@H]3c4ccc(O)c(O)c4CC[C@H]3[C@@H]1CC[C@@H]2O [4-OH-E2, 4-hydroxyestradiol]
- rate of 3-sulfate formation in the absence of celecoxib (human SULT2A1; 0.4 μM substrate): 15 pmol/min/mg protein

SMILES: C[C@]12CC[C@@H]3c4ccc(O)cc4C=C[C@H]3[C@@H]1CC[C@@H]2O [6D-E2, 6-dehydroestradiol]
- rate of 17-sulfate formation in the absence of celecoxib (human SULT2A1; 0.4 μM substrate): 2 pmol/min/mg protein
- rate of 3-sulfate formation in the absence of celecoxib (human SULT2A1; 0.4 μM substrate): 51 pmol/min/mg protein

SMILES: C[C@]12CC=C3c4ccc(O)cc4CC[C@H]3[C@@H]1CC[C@@H]2O [9D-E2, 9-dehydroestradiol]
- rate of 3-sulfate formation in the absence of celecoxib (human SULT2A1; 0.4 μM substrate): 14 pmol/min/mg protein

SMILES: C[C@]12CC[C@@H]3c4ccc(O)cc4CC[C@H]3[C@@H]1CC[C@@H]2O [17β-E2, 17β-estradiol]
- 17-sulfate produced relative to 3-sulfate in the absence of celecoxib (human SULT2A1; 0.4 μM substrate, Figure 6G): around 76 times
- Product formed, 3-sulfate (human SULT2A1; [2]): 150 pmol/min/mg protein
- Product formed, 17-sulfate (human SULT2A1; [2]): Not detected
- Product formed, Total sulfates (human SULT2A1; [2]): 150 pmol/min/mg protein
- Product formed, 3-sulfate (human SULT2A1; [3]): 306 pmol/min/mg protein
- Product formed, 17-sulfate (human SULT2A1; [3]): Not detected
- Product formed, Total sulfates (human SULT2A1; [3]): 306 pmol/min/mg protein

SMILES: C[C@]12CC[C@H]3C(=CCc4cc(O)ccc43)[C@@H]1CC[C@@H]2O [17β-Eq, 17β-dihydroequilin]
- rate of 3-sulfate formation in the absence of celecoxib (human SULT2A1; 0.4 μM substrate): 46 pmol/min/mg protein

SMILES: C[C@]12CCc3c(ccc4cc(O)ccc34)[C@@H]1CC[C@@H]2O [17β-Eqn, 17β-dihydroequilenin]
- rate of 17-sulfate formation in the absence of celecoxib (human SULT2A1; 0.4 μM substrate): 11.4 pmol/min/mg protein
- rate of 3-sulfate formation in the absence of celecoxib (human SULT2A1; 0.4 μM substrate): 56 pmol/min/mg protein

SMILES: C[C@]12CC[C@H]3[C@@H](CC=C4C[C@@H](O)CC[C@@]43C)[C@@H]1CC[C@@H]2O [AD, 5-androsten-3β,17β-diol]
- SULT2A1 enzyme activity toward the substrate (human SULT2A1; 0.4 μM substrate): 8–9 nmol sulfate/min/mg protein

SMILES: C[C@]12CC[C@H](O)CC1=CC[C@@H]1[C@@H]2CC[C@]2(C)C(=O)CC[C@@H]12 [DHEA, dehydroepiandrosterone]
- SULT2A1 enzyme activity toward the substrate (human SULT2A1; 0.4 μM substrate): 8–9 nmol sulfate/min/mg protein

SMILES: C[C@]12CC[C@H]3[C@@H](CCC4=CC(=O)CC[C@@]43C)[C@@H]1CC[C@H]2O [Epi-T, epi-testosterone]
- SULT2A1 enzyme activity toward the substrate (human SULT2A1; 0.4 μM substrate): 8–9 nmol sulfate/min/mg protein
- rate of sulfonation of Epi-T relative to T (human SULT2A1; control activities, 0.4 μM substrate): 7 times

SMILES: Cc1ccc(-c2cc(C(F)(F)F)nn2-c2ccc(S(N)(=O)=O)cc2)cc1 [celecoxib]
- effect on sulfonation of E1 (human SULT2A1; 0–80 μM celecoxib, 0.4 μM E1, p > 0.05, ANOVA): not affected significantly
- celecoxib concentration at which 4-OH-E2 17-sulfate and 3-sulfate curves cross (human SULT2A1; 0.4 μM 4-OH-E2, 20 μM PAPS): approximately 30 μM
- enhancement of total sulfate product formation from 6D-E2 (human SULT2A1; 50 μM celecoxib, 0.4 μM 6D-E2): over 8 fold
- increase of total product formation from 9D-E2 (human SULT2A1; 80 μM celecoxib, 0.4 μM 9D-E2): 9.4 times
- stimulation of 17β-Eqn–17-sulfate formation compared with absence of celecoxib (human SULT2A1; 80 μM celecoxib, 0.4 μM 17β-Eqn): 34 fold
- celecoxib concentrations at which 17β-E2–3-S decreased (human SULT2A1; 0.05, 0.2 and 0.4 μM 17β-E2): ≥ 50 µM
- celecoxib concentration at which stimulation of 17β-E2–17-S formation peaked (human SULT2A1; 0.2 and 0.4 μM 17β-E2): 50 µM
- Product formed, 3-sulfate (human SULT2A1; [4]): 85 pmol/min/mg protein
- Product formed, 17-sulfate (human SULT2A1; [4]): 199 pmol/min/mg protein
- Product formed, Total sulfates (human SULT2A1; [4]): 284 pmol/min/mg protein
- Product formed, 3-sulfate (human SULT2A1; [5]): 177 pmol/min/mg protein
- Product formed, 17-sulfate (human SULT2A1; [5]): 387 pmol/min/mg protein
- Product formed, Total sulfates (human SULT2A1; [5]): 564 pmol/min/mg protein
- Product formed, 3-sulfate (human SULT2A1; [6]): 155 pmol/min/mg protein
- Product formed, 17-sulfate (human SULT2A1; [6]): 432 pmol/min/mg protein
- Product formed, Total sulfates (human SULT2A1; [6]): 587 pmol/min/mg protein
- Product formed, 3-sulfate (human SULT2A1; [7]): 363 pmol/min/mg protein
- Product formed, 17-sulfate (human SULT2A1; [7]): 1076 pmol/min/mg protein
- Product formed, Total sulfates (human SULT2A1; [7]): 1439 pmol/min/mg protein
- effect on sulfonation of DHEA or AD at low concentrations (human SULT2A1; celecoxib 0–40 μM): did not affect
- effect on 17β-Eq-3-sulfate formation (human SULT2A1; celecoxib range studied (0–80 μM), 0.4 μM 17β-Eq): No inhibition
- rate of 3-sulfate formation when inhibited by celecoxib (Figure 6G substrate) (human SULT2A1; data not shown): < 1 pmol/min/mg protein
- increase of total sulfonation of 6D-E2, 17β-Eqn and 9D-E2 (human SULT2A1; summary in discussion): over 8 fold
- effect on formation of 3Me-E2–17β-sulfate (human SULT2A1; up to 80 μM celecoxib, 0.4 μM 3Me-E2, not saturated at 80 μM): stimulated the formation of 3Me-E2–17β-sulfate in a concentration dependent manner
- maximum liver concentration of celecoxib [1]: 230 µM
